Series [1] deals with T1, Somatostatin receptor type 2 (Homo sapiens, UniProt P30874). As to the kind of experiment: Agonist activity at human SST2 expressed in CHO-K1 cells assessed as reduction in NKH477-induced intracellular cAMP accumulation. The series is classed as functional, cell-based. The following applies: for pEC50: read-out: EC50; for EC50: read-out: pEC50 (converted).
Series [2] concerns the target Cytochrome P450 2C9 (Homo sapiens, UniProt P11712). The series is described as follows: Inhibition of CYP2C9 (unknown origin). It counts as ADME.
In series [3] the target is Somatostatin receptor type 3 (Homo sapiens, UniProt P32745). As to the kind of experiment: Agonist activity at SST3 (unknown origin).
Series [4] deals with Cytochrome P450 2C19 (Homo sapiens, UniProt P33261). The series is described as follows: Inhibition of CYP2C19 (unknown origin). The series is classed as ADME.
Series [5] deals with Voltage-gated inwardly rectifying potassium channel KCNH2 (Homo sapiens, UniProt Q12809). As to the kind of experiment: Inhibition of human ERG expressed in HEK293 cells. The series is classed as cell-based. The following applies: for IC50: read-out: pIC50 (converted); for pIC50: read-out: IC50.
The target in series [6] is Cytochrome P450 2D6 (Homo sapiens, UniProt P10635). The series is described as follows: Inhibition of CYP2D6 (unknown origin). The series is classed as ADME.
Series [7] deals with Somatostatin receptor type 5 (Homo sapiens, UniProt P35346). The series is described as follows: Agonist activity at SST5 (unknown origin).
The target in series [8] is T2, Cytochrome P450 3A4 (Homo sapiens, UniProt P08684). As to the kind of experiment: Inhibition of CYP3A4 (unknown origin) at 10 uM. The series is classed as ADME.
In series [9] the target is Somatostatin receptor type 1 (Homo sapiens, UniProt P30872). As to the kind of experiment: Agonist activity at SST1 (unknown origin).
Series [10] concerns the target T1, Somatostatin receptor type 2. As to the kind of experiment: Agonist activity at SST2 (unknown origin).
Series [11] concerns the target Somatostatin receptor type 4 (Homo sapiens, UniProt P31391). The series is described as follows: Agonist activity at SST4 (unknown origin).
Series [12] deals with T2, Cytochrome P450 3A4. The series is described as follows: Inhibition of CYP3A4 (unknown origin). The series is classed as ADME.
The target of series [13] is Somatostatin receptor type 2 (Rattus norvegicus, UniProt P30680). As to the kind of experiment: Agonist activity at rat SST2.
Series [14] is described as follows: Oral bioavailability in Sprague-Dawley rat at 10 mg/kg. The following applies: in vivo. It counts as ADME, organism-based.

pEC50, pIC50: −log10 of the molar value.

T1 sequence (P30874 whole entry): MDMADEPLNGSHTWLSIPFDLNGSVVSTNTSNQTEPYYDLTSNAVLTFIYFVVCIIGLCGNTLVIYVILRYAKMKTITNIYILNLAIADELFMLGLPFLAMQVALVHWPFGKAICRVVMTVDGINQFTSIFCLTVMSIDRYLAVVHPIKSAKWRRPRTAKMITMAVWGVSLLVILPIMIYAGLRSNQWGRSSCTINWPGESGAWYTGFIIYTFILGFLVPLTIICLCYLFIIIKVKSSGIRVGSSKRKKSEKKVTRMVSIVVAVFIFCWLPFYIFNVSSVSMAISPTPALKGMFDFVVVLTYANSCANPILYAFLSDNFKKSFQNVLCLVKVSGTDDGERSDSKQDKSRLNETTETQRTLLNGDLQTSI
Somatostatin receptor type 4, sequence (P31391 whole entry): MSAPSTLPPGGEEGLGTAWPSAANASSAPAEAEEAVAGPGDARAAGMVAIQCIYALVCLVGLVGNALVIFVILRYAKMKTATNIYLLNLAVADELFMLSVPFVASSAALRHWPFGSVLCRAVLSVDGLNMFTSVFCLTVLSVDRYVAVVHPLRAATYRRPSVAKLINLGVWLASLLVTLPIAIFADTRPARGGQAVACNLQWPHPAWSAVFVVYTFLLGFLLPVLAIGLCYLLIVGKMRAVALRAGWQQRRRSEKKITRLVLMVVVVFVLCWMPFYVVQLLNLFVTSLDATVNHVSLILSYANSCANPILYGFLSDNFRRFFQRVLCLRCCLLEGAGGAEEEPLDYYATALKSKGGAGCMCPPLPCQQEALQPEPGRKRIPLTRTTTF
Somatostatin receptor type 5, sequence (P35346 whole entry): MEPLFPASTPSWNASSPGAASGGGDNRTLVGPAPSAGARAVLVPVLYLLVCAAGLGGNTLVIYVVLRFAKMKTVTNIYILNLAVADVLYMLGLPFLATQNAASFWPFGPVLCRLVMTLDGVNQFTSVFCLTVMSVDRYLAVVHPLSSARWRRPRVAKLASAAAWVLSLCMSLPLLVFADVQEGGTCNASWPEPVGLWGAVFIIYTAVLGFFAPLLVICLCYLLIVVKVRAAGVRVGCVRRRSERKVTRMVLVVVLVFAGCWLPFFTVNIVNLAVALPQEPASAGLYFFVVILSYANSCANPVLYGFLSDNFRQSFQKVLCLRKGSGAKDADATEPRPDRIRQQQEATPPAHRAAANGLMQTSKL
Voltage-gated inwardly rectifying potassium channel KCNH2, sequence (Q12809 whole entry): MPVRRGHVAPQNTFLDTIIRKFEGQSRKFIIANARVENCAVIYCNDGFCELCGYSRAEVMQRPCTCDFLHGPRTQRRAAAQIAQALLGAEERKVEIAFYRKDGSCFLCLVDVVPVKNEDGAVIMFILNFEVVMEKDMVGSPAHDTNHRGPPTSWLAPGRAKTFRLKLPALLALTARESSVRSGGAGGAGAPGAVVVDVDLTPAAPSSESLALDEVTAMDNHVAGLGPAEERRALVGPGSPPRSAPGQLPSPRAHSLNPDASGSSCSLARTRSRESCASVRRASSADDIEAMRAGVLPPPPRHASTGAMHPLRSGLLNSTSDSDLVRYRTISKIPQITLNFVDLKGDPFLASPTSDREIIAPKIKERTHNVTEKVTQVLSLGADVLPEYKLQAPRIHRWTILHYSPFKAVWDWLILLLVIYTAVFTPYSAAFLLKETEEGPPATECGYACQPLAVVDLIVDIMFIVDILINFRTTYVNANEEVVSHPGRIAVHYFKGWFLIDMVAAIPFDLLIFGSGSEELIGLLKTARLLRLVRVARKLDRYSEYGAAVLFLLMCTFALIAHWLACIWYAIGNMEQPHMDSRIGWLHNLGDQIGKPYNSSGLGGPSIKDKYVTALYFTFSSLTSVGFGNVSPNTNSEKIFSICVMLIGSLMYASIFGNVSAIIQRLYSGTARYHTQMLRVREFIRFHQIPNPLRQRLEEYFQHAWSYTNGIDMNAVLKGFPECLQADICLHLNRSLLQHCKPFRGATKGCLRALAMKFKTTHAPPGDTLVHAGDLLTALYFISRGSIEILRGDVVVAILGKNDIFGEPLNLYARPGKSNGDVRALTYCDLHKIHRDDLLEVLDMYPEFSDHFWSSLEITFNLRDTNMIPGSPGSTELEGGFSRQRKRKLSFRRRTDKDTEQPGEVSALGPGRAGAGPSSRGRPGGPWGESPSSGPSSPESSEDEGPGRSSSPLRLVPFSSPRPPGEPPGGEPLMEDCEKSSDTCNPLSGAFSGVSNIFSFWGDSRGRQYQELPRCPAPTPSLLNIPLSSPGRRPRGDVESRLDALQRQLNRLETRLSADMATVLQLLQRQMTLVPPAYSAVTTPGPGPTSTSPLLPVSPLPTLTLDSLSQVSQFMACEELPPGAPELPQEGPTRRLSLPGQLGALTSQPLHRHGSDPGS
Somatostatin receptor type 3, sequence (P32745 whole entry): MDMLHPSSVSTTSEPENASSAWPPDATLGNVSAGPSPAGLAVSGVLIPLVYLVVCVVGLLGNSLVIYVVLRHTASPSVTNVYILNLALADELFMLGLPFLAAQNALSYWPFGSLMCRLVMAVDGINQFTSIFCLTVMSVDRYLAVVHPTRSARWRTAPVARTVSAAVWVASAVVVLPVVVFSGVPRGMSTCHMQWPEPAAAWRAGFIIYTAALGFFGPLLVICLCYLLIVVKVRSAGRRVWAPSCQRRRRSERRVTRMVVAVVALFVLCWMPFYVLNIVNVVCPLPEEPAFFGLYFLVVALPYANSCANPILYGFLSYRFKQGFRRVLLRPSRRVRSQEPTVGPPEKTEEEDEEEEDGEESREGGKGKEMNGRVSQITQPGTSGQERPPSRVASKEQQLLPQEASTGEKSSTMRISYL
Somatostatin receptor type 1, sequence (P30872 whole entry): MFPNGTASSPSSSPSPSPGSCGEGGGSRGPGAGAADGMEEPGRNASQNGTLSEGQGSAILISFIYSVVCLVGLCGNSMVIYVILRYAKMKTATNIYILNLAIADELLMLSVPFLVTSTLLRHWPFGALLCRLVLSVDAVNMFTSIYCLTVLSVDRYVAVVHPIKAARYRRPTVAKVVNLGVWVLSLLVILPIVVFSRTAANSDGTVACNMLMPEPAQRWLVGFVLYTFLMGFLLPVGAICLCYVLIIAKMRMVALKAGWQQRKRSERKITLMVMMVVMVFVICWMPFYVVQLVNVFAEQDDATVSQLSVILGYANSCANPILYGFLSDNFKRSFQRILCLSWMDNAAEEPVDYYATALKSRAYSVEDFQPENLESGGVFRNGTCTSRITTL
T2 sequence (P08684 whole entry): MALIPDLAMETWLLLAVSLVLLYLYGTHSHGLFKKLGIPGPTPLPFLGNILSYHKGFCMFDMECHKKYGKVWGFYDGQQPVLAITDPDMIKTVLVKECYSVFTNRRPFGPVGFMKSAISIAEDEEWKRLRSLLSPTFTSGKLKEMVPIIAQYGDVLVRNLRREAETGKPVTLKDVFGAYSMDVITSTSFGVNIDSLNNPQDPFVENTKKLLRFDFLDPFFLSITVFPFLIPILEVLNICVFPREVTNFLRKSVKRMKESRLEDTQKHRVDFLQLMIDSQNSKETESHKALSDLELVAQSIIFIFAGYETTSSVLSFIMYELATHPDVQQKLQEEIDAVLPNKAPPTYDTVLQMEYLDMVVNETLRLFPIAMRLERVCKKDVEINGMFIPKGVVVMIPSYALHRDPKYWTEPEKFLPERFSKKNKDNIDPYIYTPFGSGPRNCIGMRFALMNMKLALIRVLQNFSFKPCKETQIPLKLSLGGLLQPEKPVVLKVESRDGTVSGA
Cytochrome P450 2C19, sequence (P33261 whole entry): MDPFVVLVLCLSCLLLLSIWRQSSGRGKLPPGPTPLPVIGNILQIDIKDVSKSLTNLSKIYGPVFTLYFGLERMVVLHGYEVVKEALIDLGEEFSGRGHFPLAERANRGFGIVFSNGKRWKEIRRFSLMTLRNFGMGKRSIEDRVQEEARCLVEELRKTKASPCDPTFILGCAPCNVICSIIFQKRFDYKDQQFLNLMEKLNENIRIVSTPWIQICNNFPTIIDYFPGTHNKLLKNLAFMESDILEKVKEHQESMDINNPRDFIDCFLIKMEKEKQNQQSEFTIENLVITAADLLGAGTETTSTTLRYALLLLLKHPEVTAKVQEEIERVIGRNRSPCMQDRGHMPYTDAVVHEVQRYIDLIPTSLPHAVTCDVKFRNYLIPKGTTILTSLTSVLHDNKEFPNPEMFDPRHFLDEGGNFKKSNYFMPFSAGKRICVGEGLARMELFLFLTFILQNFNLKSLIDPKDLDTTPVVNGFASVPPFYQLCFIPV
Cytochrome P450 2C9, sequence (P11712 whole entry): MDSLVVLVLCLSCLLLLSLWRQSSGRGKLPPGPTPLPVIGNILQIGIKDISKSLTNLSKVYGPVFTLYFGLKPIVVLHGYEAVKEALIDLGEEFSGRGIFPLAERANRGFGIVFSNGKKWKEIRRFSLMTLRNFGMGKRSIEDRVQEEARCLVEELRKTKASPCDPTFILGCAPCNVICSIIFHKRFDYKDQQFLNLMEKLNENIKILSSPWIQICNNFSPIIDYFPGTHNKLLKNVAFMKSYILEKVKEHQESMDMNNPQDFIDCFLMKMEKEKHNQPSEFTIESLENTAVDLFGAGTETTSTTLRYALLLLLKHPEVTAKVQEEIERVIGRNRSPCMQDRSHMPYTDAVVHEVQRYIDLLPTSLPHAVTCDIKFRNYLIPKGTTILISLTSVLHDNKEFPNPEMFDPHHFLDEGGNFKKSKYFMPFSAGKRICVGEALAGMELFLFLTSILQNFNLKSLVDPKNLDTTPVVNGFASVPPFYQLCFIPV
Somatostatin receptor type 2 (Rattus norvegicus, UniProt P30680), sequence (P30680 whole entry): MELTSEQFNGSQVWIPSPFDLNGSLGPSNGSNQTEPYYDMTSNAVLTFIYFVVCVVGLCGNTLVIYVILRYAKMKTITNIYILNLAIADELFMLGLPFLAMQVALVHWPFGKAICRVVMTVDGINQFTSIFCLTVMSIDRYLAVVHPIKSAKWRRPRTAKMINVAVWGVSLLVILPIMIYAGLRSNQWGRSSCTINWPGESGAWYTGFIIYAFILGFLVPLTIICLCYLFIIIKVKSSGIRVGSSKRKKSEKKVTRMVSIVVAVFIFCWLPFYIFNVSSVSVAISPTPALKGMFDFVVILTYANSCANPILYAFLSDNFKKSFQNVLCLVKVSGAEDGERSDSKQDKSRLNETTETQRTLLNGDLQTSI

With `Cc1cc(Cl)cc(N2C=Nc3cc(C)c(-c4cccc(-c5nnn[nH]5)c4)cc3C2C(=O)N(C)C[C@@H]2CCCN2)c1` (stereo not given in full), the pEC50 in [1] (cho-k1) was under 6.00. Further, in series [1], the EC50 was over 1000 nM.
As to `Cc1cc(Cl)cc(N2C=Nc3cc(C)c(-c4cc(F)cc(F)c4)cc3C2C(=O)N(C)C[C@@H]2CCCN2)c1` (stereo not given in full), the pEC50 in [1] was 8.43.
`Cc1cc(Cl)cc(N2C=Nc3cc(C)c(-c4cccc(F)c4O)cc3C2C(=O)N(C)C[C@@H]2CCCN2)c1` (stereo not given in full): the “inhibition (INH)” value is listed as “Not Active” in [2], “Not Active” in series [4], “Not Active” in series [6] and “Active” in [8]. Besides, the figures for the pEC50 in [3], in [7] and in series [9] were 6.80, under 6.00 and under 6.00, respectively. For the same compound, in [5], the IC50 is 5010 nM.
For the compound `Cc1cc(F)cc(N2C=Nc3cc(C)c(-c4cccc(O)c4)cc3C2C(=O)N(C)C[C@@H]2CCCN2)c1` (stereo not given in full), in series [1], the pEC50 is 9.01.
On the same count and under the same terms, next, `Cc1cc(Cl)cc(N2C=Nc3cc(C)c(-c4ccc5[nH]c(=O)[nH]c5c4)cc3C2C(=O)N(C)C[C@@H]2CCCN2)c1` (stereo not given in full): 8.34; `CC[C@H](N)CN(C)C(=O)C1c2cc(-c3cccc(O)c3)c(C)cc2N=CN1c1cc(C)cc(C)c1` (stereo not given in full): 8.38.
With `Cc1cc(Cl)cc(N2C=Nc3cc(C)c(-c4cc(O)cc(F)c4)cc3C2C(=O)N(C)C[C@@H]2CCCN2)c1` (stereo not given in full), the pEC50 was 8.10 in series [3]; 9.92 in series [1]; 9.90 in [10]; 6.60 in [11]; under 6.00 in [7]; under 6.00 in series [9]. The pIC50 in [5] was over 6.00. Further, the IC50 in [5] was 631 nM.
Consider `COc1cc(F)cc(-c2cc3c(cc2C)N=CN(c2cc(C)cc(Cl)c2)C3C(=O)N(C)C[C@@H]2CCCN2)c1` (stereo not given in full), for which the pEC50 in series [1] was 8.21.
Still for that read-out and setting: then `Cc1cc(Cl)cc(N2C=Nc3cc(C)c(-c4cc(O)cc(C#N)c4)cc3C2C(=O)N(C)C[C@@H]2CCCN2)c1` (stereo not given in full), with 9.44.
Turning to `Cc1cc(C)cc(N2C=Nc3cc(Cl)c(-c4cccc(O)c4)cc3C2C(=O)NC[C@H](C)N)c1` (stereo not given in full), in series [1] (cho-k1), the pEC50 is under 6.00. In series [1], the EC50 is over 1000 nM.
Turning to `Cc1cc(Cl)cc(N2C=Nc3cc(C)c(-c4ccccc4)cc3C2C(=O)N(C)C[C@@H]2CCCN2)c1` (stereo not given in full), in series [1], the pEC50 was 7.25.
Take `Cc1cc(Cl)cc(N2C=Nc3cc(C)c(-c4cccc(C(F)(F)F)c4)cc3C2C(=O)N(C)C[C@@H]2CCCN2)c1` (stereo not given in full): the pEC50 in series [1] is 7.28.
Same read-out and setting: then `Cc1cc(Cl)cc(N2C=Nc3cc(C)c(-c4cccc(Cl)c4)cc3C2C(=O)N(C)C[C@@H]2CCCN2)c1` (stereo not given in full), with 7.41; and `Cc1cc(Cl)cc(N2C=Nc3cc(C)c(-c4cncc(C#N)c4)cc3C2C(=O)N(C)C[C@@H]2CCCN2)c1` (stereo not given in full), with 7.96.
In the case of `Cc1cc(Cl)cc(N2C=Nc3cc(C)c(-c4cccc(C#N)c4)cc3C2C(=O)N(C)C[C@@H]2CCCN2)c1` (stereo not given in full), the pEC50 in series [1] was 8.27.
In the case of `Cc1cc(Cl)cc(N2C=Nc3cc(C)c(-c4cc(F)cc(C(N)=O)c4)cc3C2C(=O)N(C)C[C@@H]2CCCN2)c1` (stereo not given in full), the pEC50 in series [3] is 8.10; in series [1], 9.82; in series [10], 9.80; in series [11], under 6.00; in series [7], under 6.00; in series [9], under 6.00. The IC50 in series [5] is 2510 nM. The compound further showed a negative logarithm of the IC50 (pIC50) in series [12] of 6.00.
As for `Cc1cc(C)cc(N2C=Nc3cc(C)c(-c4cccc(O)c4)cc3C2C(=O)N(C)C[C@@H]2CCCN2)c1` (stereo not given in full), the pEC50 in series [1] is 8.89.
As to `Cc1cc(Cl)cc(N2C=Nc3cc(C)c(-c4cc(F)cc(C#N)c4)cc3C2C(=O)N(C)C[C@@H]2CCCN2)c1` (stereo not given in full), the negative-log EC50 (pEC50) was 8.40 in series [3]; 8.89 in [1]; 8.90 in series [10]; 6.20 in series [11]; under 6.00 in series [9].
On to `Cc1cc(Cl)cc(N2C=Nc3cc(C)c(-c4cc(F)ccc4O)cc3C2C(=O)N(C)C[C@@H]2CCCN2)c1` (stereo not given in full), for which the pEC50 in [1] was 8.68.
The compound `Cc1cc(Cl)cc(N2C=Nc3cc(C)c(-c4cccc(F)c4O)cc3C2C(=O)N(C)CC2CCCN2)c1` (stereo not given) had a pEC50 in [13] of 9.27. This compound also displayed a bioavailability in series [14] of under 5%.
As for `Cc1cc(Cl)cc(N2C=Nc3cc(C)c(-c4cc(O)ccc4F)cc3C2C(=O)N(C)C[C@@H]2CCCN2)c1` (stereo not given in full), the results for the pEC50 in series [1], in series [10] and in [9] were 9.70, 9.70 and under 6.00, respectively. Also, the pIC50 in series [5] was over 6.00. Further, in [5], the IC50 was 501 nM.
For `Cc1cc(Cl)cc(N2C=Nc3cc(C)c(-c4cccc(O)c4)cc3C2C(=O)N(C)C[C@@H]2CCCN2)c1` (stereo not given in full), the pEC50 in series [1] was 9.48.
On the same count and under the same terms, then `CC[C@H](N)CN(C)C(=O)C1c2cc(-c3cccc(O)c3)c(Cl)cc2N=CN1c1cc(C)cc(C)c1` (stereo not given in full), with 7.96; and `Cc1cc(Cl)cc(N2C=Nc3cc(C)c(-c4cnn(C)c4)cc3C2C(=O)N(C)C[C@@H]2CCCN2)c1` (stereo not given in full), with 6.77; and `Cc1cc(Cl)cc(N2C=Nc3cc(C)c(-c4cncc(O)c4)cc3C2C(=O)N(C)C[C@@H]2CCCN2)c1` (stereo not given in full), with 8.09.
Take `Cc1cc(C)cc(N2C=Nc3ccc(-c4cccc(O)c4)cc3C2C(=O)N(C)C[C@H](C)N)c1` (stereo not given in full): the pEC50 in series [1] (cho-k1) is under 6.00. For the same compound, the EC50 in [1] is over 1000 nM.
With `Cc1cc(Cl)cc(N2C=Nc3cc(C)c(-c4cccc(NS(C)(=O)=O)c4)cc3C2C(=O)N(C)C[C@@H]2CCCN2)c1` (stereo not given in full), the pEC50 in series [1] is 6.89.

Values taken from ChEMBL document CHEMBL4665730, “Discovery of nonpeptide 3,4-dihydroquinazoline-4-carboxamides as potent and selective sst2 agonists” (Bioorg Med Chem Lett, 2020).
